The values that follow come from publication PMC4770092, “Subnanometre enzyme mechanics probed by single-molecule force spectroscopy” (Nature Communications, 2016).

For assay [1], the target named is T1, AdK 42-144 (Aquifex aeolicus, UniProt O66490, INS42C/INS144C).
T1 construct: full length, Cys inserted between 42/43 and 144/145; N-terminal spacer MAAKGELSG, C-terminal spacer and His6 kept; synthetic gene in pET11a, E. coli BL21(DE3); DNA handles on Cys in trap assay
Briefly: single-molecule optical tweezers, AP5A competition assay. Particulars: 50 mM Tris pH 7.5, 200 mM KCl, about 10 pN load. In kind it is binding.

For assay [2], the target named is T1, AdK 42-144. Briefly: single-molecule optical tweezers, lid closing/opening. The class given is binding. Particulars: 50 mM Tris pH 7.5, 200 mM KCl; bisubstrate inhibitor.

T1 sequence (O66490 other isoform, or with tags, fused parts or gaps INS42C/INS144C): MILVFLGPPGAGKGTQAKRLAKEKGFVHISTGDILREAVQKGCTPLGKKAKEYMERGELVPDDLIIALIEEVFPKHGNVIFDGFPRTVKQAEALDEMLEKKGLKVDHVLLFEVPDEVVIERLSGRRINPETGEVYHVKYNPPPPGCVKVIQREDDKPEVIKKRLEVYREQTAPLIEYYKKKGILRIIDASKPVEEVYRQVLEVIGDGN

`Nc1ncnc2c1ncn2[C@@H]1O[C@H](COP(=O)(O)OP(=O)(O)O)[C@@H](O)[C@H]1O` [ADP]: the KD entry on AdK 42-144 [1] (Mg-ADP, AP5A competitor) is “nucleotides ADP (yellow), Mg-ADP (green) and Mg-ATP (blue)”.
Take `Nc1ncnc2c1ncn2[C@@H]1O[C@H](COP(=O)(O)OP(=O)(O)OP(=O)(O)OP(=O)(O)OC[C@H]2O[C@@H](n3cnc4c(N)ncnc43)[C@H](O)[C@@H]2O)[C@@H](O)[C@H]1O` [AP4A]: the “single-molecule optical tweezers, lid closing/opening” value at AdK 42-144 [2] is “We found that AP4A induces full closing of AdK indistinguishable from AP5A”.
Same read-out and setting: then `Nc1ncnc2c1ncn2[C@@H]1O[C@H](COP(=O)(O)OP(=O)(O)OP(=O)(O)OP(=O)(O)OP(=O)(O)OP(=O)(O)OC[C@H]2O[C@@H](n3cnc4c(N)ncnc43)[C@H](O)[C@@H]2O)[C@@H](O)[C@H]1O` [AP6A], with “AP6A binds with the same affinity as AP5A despite its significantly reduced closing distance”.
For the molecule `Nc1ncnc2c1ncn2[C@@H]1O[C@H](COP(=O)(O)OP(=O)(O)OP(=O)(O)O)[C@@H](O)[C@H]1O` [ATP], on AdK 42-144 [1] (Mg-ATP, 1 μM AP5A competitor), the KD result was “nucleotides ADP (yellow), Mg-ADP (green) and Mg-ATP (blue)”.
